Reference: article PMC7288058, “Modulating the Properties of Fe(III) Macrocyclic MRI Contrast Agents by Appending Sulfonate or Hydroxyl Groups” (Molecules, 2020)

Assays:
[1] = tested on: Balb/c mice; test: Dynamic T1-weighted MRI in mice after tail vein injection (4.7 T); assay type: in vivo
Excerpt: The two new Fe(III) complexes, Fe(L1)(OH2) and […], and the Gd(III) agent, Gd(DOTA), were studied in Balb/c mice on a small animal 4.7-T MRI scanner upon tail vein injection of the agent (Figure S24, Supplementary Materials). […] Biodistribution and pharmacokinetic clearance of the complexes in mice were monitored by using dynamic MRI.
In vivo imaging studies with the Fe(III) complexes were studied on at 4.7 T Bruker preclinical MRI in mice (BABC/cJ, Jackson Laboratory) in accordance with approved Institutional Animal Care and Use Committee (IACUC) protocols. The samples with a concentration of 0.050, 0.100, and 0.200 mmol [Fe]/kg. The Fe(III) complex stock solutions were adjusted to pH 7.2 by addition of meglumine and were injected intravenously via tail vein. MR data were recorded continuously for up to 1 h. Distribution studies and clearance kinetics were studied by using MR data acquired over several time points for up to 1 h, and additionally at 4 h and 24 h. For comparison, The Food and Drug Administration (FDA)-approved MRI contrast agent gadopentetate dimeglumine (Gd(DTPA), Magnevist®) and gadoterate meglumine (Gd(DOTA), Dotarem®) were injected at 50.0 μmol [Gd]/kg into separate group of mice and imaged as above.

[2] = Cyclic voltammetry, Fe(III)/Fe(II) electrode potential; assay type: physicochemical; settings: for electrode potential (E1/2) vs. Ag/AgCl: 0.10 M potassium chloride
Description: Cyclic voltammetry experiments were carried out in aqueous solutions containing 0.10 M potassium chloride at acidic and neutral pH values with potassium ferricyanide salt in aqueous solution as a reference (Figure S8, Supplementary Materials). […] The electrode potential (E1/2) of Fe(L1)(OH2) at pH 3 was 227 mV vs. Ag/AgCl (515 mV vs. normal hydrogen electrode, NHE) and was −209 mV vs. Ag/AgCl (79 mV vs. NHE) at pH 7. […] At pH 3 the E1/2 was estimated as 264 mV vs. Ag/AgCl (552 mV vs. NHE), and, at pH 7, it was estimated as −618 mV vs. Ag/AgCl (−330 mV vs. NHE). For comparison, the E1/2 of Fe(L3)(OH2) at pH 3 was reported as 112 mV vs. Ag/AgCl (400 mV vs. NHE) and, at pH 7, the value was −588 mV vs. Ag/AgCl (−300 mV vs. NHE).
Cyclic voltammetry measurements were performed in 10.0-mL aqueous solutions containing 0.100 M […] as supporting electrolyte and 1.00 mM Fe(III) complexes. A standard three-electrode cell was used with a polished glassy carbon as the working electrode, a Pt wire as the auxiliary electrode, and an Ag/AgCl (1.00 mM) reference electrode. The samples were purged with extra pure N2 gas to remove the dissolved oxygen for each measurement. Current was measured with a 10-s prescan delay between −1.5 V and 1.5 V at a sweep rate of 100 and 500 mV/s, where 1.00 mM ferrocyanide was used as a standard solution. The redox potential of Fe(II)/(III) was calculated from the anodic (Epa) and cathodic (Epc) potentials, as EFe(II)/(III) = (Epa + Epc)/2 in reference to Ag/AgCl (1.00 mM), then converted to a value referenced to the normal hydrogen electrode (NHE).

SMILES	kidney contrast enhancement in T1-weighted images ([1]; 0.20 mmol/kg, 5 min post-injection)	clearance pathway ([1]; Balb/c mice, dynamic MRI)	tolerability in mice ([1]; mouse, in vivo)	electrode potential (E1/2) vs. Ag/AgCl ([2]; pH 3, aqueous)	electrode potential (E1/2) vs. NHE ([2]; pH 3, converted from Ag/AgCl)	electrode potential (E1/2) vs. Ag/AgCl ([2]; pH 7, aqueous)	electrode potential (E1/2) vs. NHE ([2]; pH 7, converted from Ag/AgCl)	T1-weighted contrast enhancement compared with other agents ([1]; healthy mouse, 0.05 mmol/kg, kidneys/blood, up to 45 min)
C[C@H]([O-])CN1CCN(CCCS(=O)(=O)[O-])CCN(C[C@H](C)O)CC1.O.[Fe+3] [Fe(L1)(OH2)]	Enhancement of kidney contrast was observed	cleared predominately by the renal system	tolerated well	227 mV	515 mV	−209 mV	79 mV	–
C[C@H]([O-])CN1CCN(C[C@H](C)O)CCN(C[C@H](C)O)CC1.[Fe+3] [Fe(L2)]	–	–	–	~264 mV	~552 mV	~−618 mV	~−330 mV	slightly more enhanced contrast in kidneys and blood than Fe(L1)(OH2) or the Gd(III) complexes
